Data taken from the supplement of paper PMC10627819.

Columns and labels:
[1] = system: B. subtilis 168; assay: fitness (endpoint OD595 vs no drug) (fraction); higher = more growth
Summary of the method: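 Growth medium was TSB, LB Lennox or CY, and plates were kept at 37 °C. Inoculation was at OD595 0.01 in 384-well plates, at 30 µl per well or 55 µl for S. pneumoniae. OD595 was monitored every 30 min for 14 h and background-subtracted using the first reading. Fitness is the optical density on entering stationary phase divided by the robust mean of no-drug controls, with values capped at 1.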

[2] = system: S. aureus DSM 20231; assay: Bliss interaction score (quartile over a dose matrix) (fitness difference); higher = more antagonism (negative = synergy)
Summary of the method: (§1)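 The Bliss score is observed minus expected fitness, where expected fitness is the product of the single-drug fitness values inferred from the combination data. Fitness is the OD595 at the onset of stationary phase over the plate's robust no-drug mean, capped at 1. Scores are summarised by quartiles over technical, biological and donor/recipient replicates.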

[3] = system: B. subtilis 168; assay: as above
Summary of the method: as §1

[4] = system: S. aureus Newman; assay: as above
Summary of the method: as §1

[5] = system: S. pneumoniae D39V; assay: as above
Summary of the method: as §1
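Throughout, for Bliss interaction score (quartile over a dose matrix): first quartile when negative (synergy) and third quartile when positive (antagonism).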
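Throughout, for fitness (endpoint OD595 vs no drug): OD595 on entry to stationary phase over no-drug wells; at most 1.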

CO/N=C(\C(=O)N[C@@H]1C(=O)N2C(C(=O)O)=C(COC(C)=O)CS[C@H]12)c1csc(N)n1 [Cefotaxime] + CO[C@@H]1[C@@H](OC(N)=O)[C@@H](O)[C@H](Oc2ccc3c(O)c(NC(=O)c4ccc(O)c(CC=C(C)C)c4)c(=O)oc3c2C)OC1(C)C [Novobiocin]
fitness, [1], one replicate
Conditions | first compound 0.00775 µg/mL | first compound 0.0155 µg/mL | first compound 0.031 µg/mL | first compound 0.0625 µg/mL | first compound 0.125 µg/mL | first compound 0.25 µg/mL
partner 0.05 µg/mL | 0.908 | 0.735 | 0.565 | – | – | –
partner 0.1 µg/mL | 0.955 | 0.715 | 0.563 | – | – | –
partner 0.125 µg/mL | – | – | – | 0.291 | 0.169 | 0.117
partner 0.2 µg/mL | 0.945 | 0.676 | 0.51 | – | – | –
partner 0.25 µg/mL | – | – | – | 0.112 | 0.0673 | 0.0477
partner 0.5 µg/mL | – | – | – | 0.0592 | 0.0517 | 0.0477

fitness, [1]
Conditions | first compound 0.5 µg/mL | first compound 1 µg/mL | first compound 2 µg/mL
partner 0.0125 µg/mL | 0.27 | 0.122 | 0.127
partner 0.025 µg/mL | 0.275 | 0.135 | 0.131
partner 0.05 µg/mL | 0.276 | 0.153 | 0.142

Conditions | Bliss interaction score
[2] | 0.0739
[3] | 0.097
[4] | 0.0646
[5] | -0.126

CO/N=C(\C(=O)N[C@@H]1C(=O)N2C(C(=O)O)=C(COC(N)=O)CS[C@H]12)c1ccco1 [Cefuroxime] + CC(=O)NC[C@H]1CN(c2ccc(N3CCOCC3)c(F)c2)C(=O)O1 [Linezolid]
fitness, [1]
Conditions | first compound 0.04875 µg/mL | first compound 0.0975 µg/mL | first compound 0.195 µg/mL
partner 0.125 µg/mL | 0.532 | 0.526 | 0.423
partner 0.25 µg/mL | 0.293 | 0.261 | 0.0774
partner 0.5 µg/mL | 0.103 | 0.0891 | 0.0749

fitness, [1], one replicate
Conditions | first compound 0.195 µg/mL | first compound 0.39 µg/mL | first compound 0.78 µg/mL | first compound 1.562 µg/mL | first compound 3.125 µg/mL | first compound 6.25 µg/mL
partner 0.0625 µg/mL | 0.379 | 0.312 | 0.235 | – | – | –
partner 0.125 µg/mL | – | 0.227 | 0.14 | 0.331 | 0.384 | 0.308
partner 0.25 µg/mL | – | 0.0397 | 0.0222 | 0.0445 | 0.0527 | 0.0345
partner 0.5 µg/mL | – | – | – | 0.0242 | 0.0246 | 0.0074

Conditions | Bliss interaction score
[2] | -0.208
[3] | 0.139
[4] | 0.0749
[5] | 0.079

CO/N=C(\C(=O)N[C@@H]1C(=O)N2C(C(=O)O)=C(COC(N)=O)CS[C@H]12)c1ccco1 [Cefuroxime] + CCC(C)C1C(=O)NC(=C)C(=O)NC(C(=O)NC(CSCC(C(=O)N1)NC(=O)/C(=C/C)/NC(=O)C(C(C)CC)N)C(=O)NC2C(SCC(NC(=O)CNC(=O)C3CCCN3C2=O)C(=O)NC(CCCCN)C(=O)NC4C(SCC(NC(=O)CNC(=O)C(NC(=O)C(NC(=O)C(NC(=O)CNC4=O)C)CC(C)C)CCSC)C(=O)NC(CC(=O)N)C(=O)NC(CCSC)C(=O)NC(CCCCN)C(=O)NC5C(SCC6C(=O)NC(C(=O)NC(CSC(C(C(=O)N6)NC(=O)C(NC5=O)C)C)C(=O)NC(CO)C(=O)NC(C(C)CC)C(=O)NC(CC7=CN=CN7)C(=O)NC(C(C)C)C(=O)NC(=C)C(=O)NC(CCCCN)C(=O)O)CC8=CN=CN8)C)C)C)CC(C)C [Nisin]
[1], one replicate, main component drawn
Conditions | fitness
first compound 0.04875 µg/mL, partner 0.5 µg/mL | 0.608
first compound 0.04875 µg/mL, partner 1 µg/mL | 0.529
first compound 0.04875 µg/mL, partner 2 µg/mL | 0.417
first compound 0.04875 µg/mL, partner 4 µg/mL | 0.0351
first compound 0.04875 µg/mL, partner 8 µg/mL | 0.0258
first compound 0.04875 µg/mL, partner 16 µg/mL | 0.0482
first compound 0.0975 µg/mL, partner 0.5 µg/mL | 0.471
first compound 0.0975 µg/mL, partner 1 µg/mL | 0.427
first compound 0.0975 µg/mL, partner 2 µg/mL | 0.261
first compound 0.0975 µg/mL, partner 4 µg/mL | 0.032
first compound 0.0975 µg/mL, partner 8 µg/mL | 0.0195
first compound 0.0975 µg/mL, partner 16 µg/mL | 0.02
first compound 0.195 µg/mL, partner 0.5 µg/mL | 0.385
first compound 0.195 µg/mL, partner 1 µg/mL | 0.382
first compound 0.195 µg/mL, partner 1.25 µg/mL | 0.173
first compound 0.195 µg/mL, partner 1.6 µg/mL | 0.0755
first compound 0.195 µg/mL, partner 2 µg/mL | 0.278
first compound 0.195 µg/mL, partner 2.5 µg/mL | 0.0381
first compound 0.195 µg/mL, partner 3.2 µg/mL | 0.0377
first compound 0.195 µg/mL, partner 4 µg/mL | 0.0274
first compound 0.195 µg/mL, partner 5 µg/mL | 0.0619
first compound 0.195 µg/mL, partner 6.4 µg/mL | 0.0264
first compound 0.195 µg/mL, partner 8 µg/mL | 0.0204
first compound 0.195 µg/mL, partner 16 µg/mL | 0.0103
first compound 0.39 µg/mL, partner 1.25 µg/mL | 0.086
first compound 0.39 µg/mL, partner 1.6 µg/mL | 0.0435
first compound 0.39 µg/mL, partner 2.5 µg/mL | 0.0309
first compound 0.39 µg/mL, partner 3.2 µg/mL | 0.0108
first compound 0.39 µg/mL, partner 5 µg/mL | 0.0219
first compound 0.39 µg/mL, partner 6.4 µg/mL | 0.0352
first compound 0.78 µg/mL, partner 1.25 µg/mL | 0.0678
first compound 0.78 µg/mL, partner 1.6 µg/mL | 0.0281
first compound 0.78 µg/mL, partner 2.5 µg/mL | 0.0242
first compound 0.78 µg/mL, partner 3.2 µg/mL | 0.0058
first compound 0.78 µg/mL, partner 5 µg/mL | 0.0235
first compound 0.78 µg/mL, partner 6.4 µg/mL | 0.0238
first compound 1.562 µg/mL, partner 0.5 µg/mL | 0.257
first compound 1.562 µg/mL, partner 1 µg/mL | 0.0875
first compound 1.562 µg/mL, partner 2 µg/mL | 0.038
first compound 3.125 µg/mL, partner 0.5 µg/mL | 0.173
first compound 3.125 µg/mL, partner 1 µg/mL | 0.0836
first compound 3.125 µg/mL, partner 2 µg/mL | 0.02
first compound 6.25 µg/mL, partner 0.5 µg/mL | 0.105
first compound 6.25 µg/mL, partner 1 µg/mL | 0.0185
first compound 6.25 µg/mL, partner 2 µg/mL | 0.0198

main component drawn
Conditions | Bliss interaction score
[2] | -0.109
[3] | -0.0638
[4] | -0.331
[5] | 0.0468

CO/N=C(\C(=O)N[C@@H]1C(=O)N2C(C(=O)O)=C(COC(N)=O)CS[C@H]12)c1ccco1 [Cefuroxime] + CCC[C@@H]1C[C@@H](C(=O)N[C@@H]([C@H]2O[C@H](SC)[C@H](O)[C@@H](O)[C@H]2O)[C@@H](C)O)N(C)C1 [Lincomycin]
fitness, [1], one replicate
Conditions | first compound 0.04875 µg/mL | first compound 0.0975 µg/mL | first compound 0.195 µg/mL | first compound 0.39 µg/mL | first compound 0.78 µg/mL | first compound 1.562 µg/mL | first compound 3.125 µg/mL | first compound 6.25 µg/mL
partner 0.1 µg/mL | 0.88 | 0.8 | – | 0.388 | 0.386 | 0.303 | 0.248 | 0.156
partner 0.2 µg/mL | 0.865 | 0.713 | – | 0.358 | 0.372 | 0.265 | 0.19 | 0.137
partner 0.4 µg/mL | – | – | – | 0.373 | 0.319 | 0.265 | 0.175 | 0.101
partner 0.8 µg/mL | 0.505 | 0.467 | 0.359 | – | – | – | – | –
partner 1.6 µg/mL | 0.498 | 0.428 | 0.323 | – | – | – | – | –

fitness, [1]
Conditions | first compound 0.04875 µg/mL | first compound 0.0975 µg/mL | first compound 0.195 µg/mL
partner 0.1 µg/mL | – | – | 0.554
partner 0.2 µg/mL | – | – | 0.521
partner 0.4 µg/mL | 0.682 | 0.644 | 0.396

Conditions | Bliss interaction score
[2] | -0.223
[3] | 0.0554
[4] | -0.0658
[5] | 0.0595
